Structures can show the parent of a compound that is named as a salt.
Molecular target: TrkA (Homo sapiens (Human), UniProt P04629)
Test: TrkA Omnia Assay
Assay type: biochemical
Settings: averaged IC50; 20 nM enzyme, 500 μM ATP, 10 μM peptide substrate
Summary of the method: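 Continuous fluorescent kinase read-out (ex 360 nm, em 485 nm) over 70 min, with initial rates fitted to 4- or 5-parameter logistic curves for IC50. Final conditions: 500 μM ATP, 10 μM Omnia Tyr Peptide #4, 20 nM TrkA, MOPS pH 7.5 buffer with MgCl2 and Triton X-100; enzyme and compound preincubated 10 min at ambient temperature.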

TrkA, sequence (P04629 33-796): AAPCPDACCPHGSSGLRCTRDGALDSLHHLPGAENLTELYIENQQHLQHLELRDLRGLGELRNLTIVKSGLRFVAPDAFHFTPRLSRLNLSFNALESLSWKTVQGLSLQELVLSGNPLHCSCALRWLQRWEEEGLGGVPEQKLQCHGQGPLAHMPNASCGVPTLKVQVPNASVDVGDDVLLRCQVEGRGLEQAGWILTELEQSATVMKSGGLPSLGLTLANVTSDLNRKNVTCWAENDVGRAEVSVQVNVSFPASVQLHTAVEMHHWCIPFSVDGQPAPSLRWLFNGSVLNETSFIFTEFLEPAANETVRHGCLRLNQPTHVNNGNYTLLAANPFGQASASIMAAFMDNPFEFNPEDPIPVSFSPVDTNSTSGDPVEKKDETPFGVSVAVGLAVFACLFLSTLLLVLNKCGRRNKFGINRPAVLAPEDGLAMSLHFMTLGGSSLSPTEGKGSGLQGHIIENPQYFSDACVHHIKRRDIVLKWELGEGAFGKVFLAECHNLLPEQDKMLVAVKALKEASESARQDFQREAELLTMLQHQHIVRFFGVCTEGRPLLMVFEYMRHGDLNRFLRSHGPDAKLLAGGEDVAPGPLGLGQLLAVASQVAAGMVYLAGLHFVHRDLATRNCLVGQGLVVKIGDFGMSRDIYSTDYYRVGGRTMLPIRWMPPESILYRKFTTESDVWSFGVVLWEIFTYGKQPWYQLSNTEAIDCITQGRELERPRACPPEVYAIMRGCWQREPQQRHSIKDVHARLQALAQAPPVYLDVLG

Which IC50 does the source give for `CCc1nn(-c2ccccc2)c(NC(=O)N[C@@H]2CN(CCOC)C[C@H]2c2ccc(F)c(F)c2)c1C(N)=O` [Example 621, 5-(3-((3S,4R)-4-(3,4-difluorophenyl)-1-(2-methoxyethyl)pyrrolidin-3-yl)ureido)-3-ethyl-1-phenyl-1H-pyrazole-4-carboxamide] here?
Its IC50 is < 100 nM.

With `COCCN1C[C@@H](NC(=O)Nc2c(C(N)=O)c(C(F)(F)F)nn2-c2ccccc2)[C@H](c2ccc(F)c(F)c2)C1` [Example 622, 5-(3-((3S,4R)-4-(3,4-difluorophenyl)-1-(2-methoxyethyl)pyrrolidin-3-yl)ureido)-1-phenyl-3-(trifluoromethyl)-1H-pyrazole-4-carboxamide] as the compound, how does the IC50 read?
Its IC50 is < 100 nM.

`COCCN1C[C@@H](NC(=O)Nc2c(C(N)=O)c(C)nn2-c2ccccc2)[C@H](c2cc(F)cc(F)c2)C1` [Example 626, 5-(3-((3S,4R)-4-(3,5-difluorophenyl)-1-(2-methoxyethyl)pyrrolidin-3-yl)ureido)-3-methyl-1-phenyl-1H-pyrazole-4-carboxamide] was tested. Which IC50 did it give?
Its IC50 is < 100 nM.

Which IC50 does the source give for `COCCN1C[C@@H](NC(=O)Nc2c(C(N)=O)cnn2-c2ccccc2)[C@H](c2ccc(F)c(F)c2)C1` [Example 627, 5-(3-((3S,4R)-4-(3,4-difluorophenyl)-1-(2-methoxyethyl)pyrrolidin-3-yl)ureido)-1-phenyl-1H-pyrazole-4-carboxamide] here?
The IC50 was < 100 nM.

`COCCN1C[C@@H](NC(=O)Nc2c(C(N)=O)c(C(F)F)nn2-c2ccccc2)[C@H](c2ccc(F)c(F)c2)C1` [Example 628, 3-(difluoromethyl)-5-(3-((3S,4R)-4-(3,4-difluorophenyl)-1-(2-methoxyethyl)pyrrolidin-3-yl)ureido)-1-phenyl-1H-pyrazole-4-carboxamide] was tested. Which IC50 did it give?
The IC50 was < 100 nM.

With `COCCN1C[C@@H](NC(=N)Nc2c(Br)c(C)nn2-c2ccccc2)[C@H](c2ccc(F)c(F)c2)C1` [Example 629, 1-(4-bromo-3-methyl-1-phenyl-1H-pyrazol-5-yl)-3-((3S,4R)-4-(3,4-difluorophenyl)-1-(2-methoxyethyl)pyrrolidin-3-yl)guanidine dihydrochloride] as the compound, how does the IC50 read?
The IC50 was 1000 to 10000 nM.

With `COCCN1C[C@@H](NC(=S)Nc2c(Br)c(C)nn2-c2ccccc2)[C@H](c2ccc(F)c(F)c2)C1` [Example 630, 1-(4-bromo-3-methyl-1-phenyl-1H-pyrazol-5-yl)-3-((3S,4R)-4-(3,4-difluorophenyl)-1-(2-methoxyethyl)pyrrolidin-3-yl)thiourea] as the compound, how does the IC50 read?
Its IC50 is < 100 nM.

With `COCCN1C[C@@H](NC(=S)Nc2c(C)c(-c3ccc(=O)n(C)c3)nn2-c2ccccc2)[C@H](c2ccc(F)c(F)c2)C1` [Example 631, 1-((3S,4R)-4-(3,4-difluorophenyl)-1-(2-methoxyethyl)pyrrolidin-3-yl)-3-(4-methyl-3-(1-methyl-6-oxo-1,6-dihydropyridin-3-yl)-1-phenyl-1H-pyrazol-5-yl)thiourea] as the compound, how does the IC50 read?
The IC50 was < 100 nM.

Which IC50 does the source give for `COCCN1C[C@@H](NC(=S)Nc2c(C)c(-c3cnn(C)c3)nn2-c2ccccc2)[C@H](c2ccc(F)c(F)c2)C1` [Example 632, 1-((3S,4R)-4-(3,4-difluorophenyl)-1-(2-methoxyethyl)pyrrolidin-3-yl)-3-(1′,4-dimethyl-1-phenyl-1H,1′H-3,4′-bipyrazol-5-yl)thiourea] here?
Its IC50 is < 100 nM.

How did the IC50 turn out when `COCCN1C[C@@H](NC(=S)Nc2c(C)c(-c3cnn(C)c3)nn2-c2ccccc2)[C@H](c2ccc(F)cc2)C1` [Example 633, 1-((3S,4R)-4-(4-fluorophenyl)-1-(2-methoxyethyl)pyrrolidin-3-yl)-3-(1′,4-dimethyl-1-phenyl-1H, 1′H-3,4′-bipyrazol-5-yl)thiourea] was run?
The IC50 was < 100 nM.

Which IC50 does the source give for `COCCN1CC(c2ccccc2)[C@H](NC(=O)Nc2c(-c3ccccc3)nn3ccccc23)C1` (some centres unmarked) [Example 634] here?
Its IC50 is < 100 nM.

`COCCN1C[C@@H](NC(=O)Nc2c(-c3ccccc3)nn3ccccc23)[C@H](c2ccc(F)c(F)c2)C1` [Example 635, 1-((3S,4R)-4-(3,4-difluorophenyl)-1-(2-methoxyethyl)pyrrolidin-3-yl)-3-(2-phenylpyrazolo[1,5-a]pyridin-3-yl)urea] was tested. Which IC50 did it give?
The IC50 was < 100 nM.

How did the IC50 turn out when `COCCN1CC(c2ccccc2)[C@H](NC(=O)Nc2cnn3ccccc23)C1` (some centres unmarked) [Example 636] was run?
The IC50 was 100 to 1000 nM.

Which IC50 does the source give for `COCCN1C[C@@H](NC(=O)Nc2cnn3ccccc23)[C@H](c2ccc(F)c(F)c2)C1` [Example 637, 1-((3S,4R)-4-(3,4-difluorophenyl)-1-(2-methoxyethyl)pyrrolidin-3-yl)-3-(pyrazolo[1,5-a]pyridin-3-yl)urea] here?
Its IC50 is < 100 nM.

Which IC50 does the source give for `COCCN1C[C@@H](NC(=O)Nc2c(-c3ccccc3)nn(-c3cnccn3)c2C)[C@H](c2ccc(F)c(F)c2)C1` [Example 638, 1-((3S,4R)-4-(3,4-difluorophenyl)-1-(2-methoxyethyl)pyrrolidin-3-yl)-3-(5-methyl-3-phenyl-1-(pyrazin-2-yl)-1H-pyrazol-4-yl)urea] here?
Its IC50 is < 100 nM.

With `COCCN1C[C@@H](NC(=O)Nc2c(-c3ccccc3)nn(C)c2C)[C@H](c2ccc(F)c(F)c2)C1` [Example 639, 1-((3S,4R)-4-(3,4-difluorophenyl)-1-(2-methoxyethyl)pyrrolidin-3-yl)-3-(1,5-dimethyl-3-phenyl-1H-pyrazol-4-yl)urea] as the compound, how does the IC50 read?
Its IC50 is < 100 nM.

With `COCCN1C[C@@H](NC(=O)Nc2c(-c3ccccc3)nn(C)c2C)[C@H](c2cc(F)cc(F)c2)C1` [Example 640, 1-((3S,4R)-4-(3,5-difluorophenyl)-1-(2-methoxyethyl)pyrrolidin-3-yl)-3-(1,5-dimethyl-3-phenyl-1H-pyrazol-4-yl)urea] as the compound, how does the IC50 read?
The IC50 was < 100 nM.

Which IC50 does the source give for `COCCN1C[C@@H](NC(=O)Nc2c(-c3ccccc3)nn(C(C)C)c2C)[C@H](c2ccc(F)c(F)c2)C1` [Example 641, 1-((3S,4R)-4-(3,4-difluorophenyl)-1-(2-methoxyethyl)pyrrolidin-3-yl)-3-(1-isopropyl-5-methyl-3-phenyl-1H-pyrazol-4-yl)urea] here?
Its IC50 is 100 to 1000 nM.

With `COCCN1C[C@@H](NC(=O)Nc2c(-c3ccccc3)nn(C(C)C)c2C)[C@H](c2cc(F)cc(F)c2)C1` [Example 642, 1-((3S,4R)-4-(3,5-difluorophenyl)-1-(2-methoxyethyl)pyrrolidin-3-yl)-3-(1-isopropyl-5-methyl-3-phenyl-1H-pyrazol-4-yl)urea] as the compound, how does the IC50 read?
The IC50 was 100 to 1000 nM.

With `COCCN1C[C@@H](NC(=O)Nc2c(-c3ccccc3)nn(CC(F)(F)F)c2C)[C@H](c2ccc(F)c(F)c2)C1` [Example 643, 1-((3S,4R)-4-(3,4-difluorophenyl)-1-(2-methoxyethyl)pyrrolidin-3-yl)-3-(5-methyl-3-phenyl-1-(2,2,2-trifluoroethyl)-1H-pyrazol-4-yl)urea] as the compound, how does the IC50 read?
Its IC50 is < 100 nM.

`CCn1nc(-c2ccccc2)c(NC(=O)N[C@@H]2CN(CCOC)C[C@H]2c2ccc(F)c(F)c2)c1C` [Example 644, 1-((3S,4R)-4-(3,4-difluorophenyl)-1-(2-methoxyethyl)pyrrolidin-3-yl)-3-(1-ethyl-5-methyl-3-phenyl-1H-pyrazol-4-yl)urea] was tested. Which IC50 did it give?
Its IC50 is < 100 nM.

With `CCn1nc(C)c(NC(=O)N[C@@H]2CN(CCOC)C[C@H]2c2ccc(F)c(F)c2)c1-c1ccccc1` [Example 645, 1-((3S,4R)-4-(3,4-difluorophenyl)-1-(2-methoxyethyl)pyrrolidin-3-yl)-3-(1-ethyl-3-methyl-5-phenyl-1H-pyrazol-4-yl)urea] as the compound, how does the IC50 read?
Its IC50 is < 100 nM.

Which IC50 does the source give for `COCCN1C[C@@H](NC(=O)Nc2c(C(F)(F)F)nn(C)c2-c2ccccc2)[C@H](c2ccc(F)c(F)c2)C1` [Example 646, 1-((3S,4R)-4-(3,4-difluorophenyl)-1-(2-methoxyethyl)pyrrolidin-3-yl)-3-(1-methyl-5-phenyl-3-(trifluoromethyl)-1H-pyrazol-4-yl)urea] here?
The IC50 was 100 to 1000 nM.

How did the IC50 turn out when `COCCN1C[C@@H](NC(=O)Nc2c(-c3ccccc3)nn(C)c2C(F)(F)F)[C@H](c2ccc(F)c(F)c2)C1` [Example 647, 1-((3S,4R)-4-(3,4-difluorophenyl)-1-(2-methoxyethyl)pyrrolidin-3-yl)-3-(1-methyl-3-phenyl-5-(trifluoromethyl)-1H-pyrazol-4-yl)urea] was run?
Its IC50 is < 100 nM.

How did the IC50 turn out when `COCCN1C[C@@H](NC(=O)Nc2cn(-c3ccccc3)nc2C)[C@H](c2ccc(F)c(F)c2)C1` [Example 648, 1-((3S,4R)-4-(3,4-difluorophenyl)-1-(2-methoxyethyl)pyrrolidin-3-yl)-3-(3-methyl-1-phenyl-1H-pyrazol-4-yl)urea] was run?
The IC50 was < 100 nM.

With `COCCN1C[C@@H](NC(=O)Nc2cn(-c3ccccc3)nc2C(F)(F)F)[C@H](c2ccc(F)c(F)c2)C1` [Example 649, 1-((3S,4R)-4-(3,4-difluorophenyvl)-1-(2-methoxyethyl)pyrrolidin-3-yl)-3-(1-phenyl-3-(trifluoromethyl)-1H-pyrazol-4-yl)urea] as the compound, how does the IC50 read?
The IC50 was 100 to 1000 nM.
